Data from article PMC11874007, “Switching Roles—Exploring Concentration-Dependent Agonistic versus Antagonistic Behavior of Integrin Ligands” (Journal of Medicinal Chemistry, 2025).
Read-outs that look alike come from different tables or passages of the source. Non-standard residues stand in square brackets, D forms with d. Chg = N[C@H](C(=O)O)C1CCCCC1; NMeV = CN[C@H](C(=O)O)C(C)C

Assays:
human αvβ3-integrin = biological target: T1, human αvβ3-integrin (Homo sapiens, UniProt P05106+P06756); assay: ELISA-type solid-phase binding assay: soluble αvβ3 competing for immobilized vitronectin; conditions: competitive ELISA-type assay, referenced to internal standard cilengitide (L2)
T1 construct: purchased R&D 3050-AV-050

human α5β1-integrin = biological target: T2, human α5β1-integrin (Homo sapiens, UniProt P05556+P08648); assay: ELISA-type solid-phase binding assay: soluble α5β1 competing for immobilized fibronectin
T2 construct: purchased R&D 3230-A5-050
Protocol: Prior to the biological evaluation of the ligands, their specificity and subtype-selective affinity was analyzed by an ELISA (enzyme-linked immune sorbent assay)-type solid-phase ligand binding assay[59] by measuring the competitive binding of soluble purified integrins in the presence of the respective ligands to plate-immobilized purified ECM proteins, as described in Experimental Section: vitronectin (for αvβ3-directed ligands), fibronectin (for α5β1-directed ligands), or the latency-associated peptide (LAP) of transforming growth factor-β (TGF-β) (for αvβ6-directed ligands). Then, we determined whether Cy5.5 conjugation of ligands led to altered ligand binding affinities and integrin subtype selectivity compared to the unlabeled compounds. In the following, we describe in detail the alterations detected.
(3) 2.0 μg/mL mouse-anti-human CD51/61 (BD Biosciences, Franklin Lakes, New Jersey, USA; #555504). (4) 2.0 μg/mL anti-mouse IgG-POD (Sigma-Aldrich, #A9044-2ML). Integrin αvβ6: (1) 0.4 μg/mL LAP (TGF-β) (R&D, #246-LP-025), (2) 0.5 μg/mL human αvβ6 (R&D, #3817-AV-050), (3) 1:500 dilution mouse-anti-human αv (MAB1978) (Merck Millipore, #MAB1978), (4) 2.0 μg/mL anti-mouse IgG-POD (Sigma-Aldrich, #A9044-2ML). Integrin α5β1: (1) 0.5 μg/mL human fibronectin (Sigma-Aldrich, #F0895-1MG), (2) 2.0 μg/mL human α5β1 (R&D, 3230-A5-050), (3) 1.0 μg/mL mouse-anti-human CD49e (BD Biosciences, #555651), (4) 2.0 μg/mL anti-mouse IgG-POD (Sigma-Aldrich, #A9044-2 ML). For Western blot analysis, the following antibodies were used: (p-)p44/42^(erk-1/2) (1) 1:300 dilution of rabbit-anti-human p44/42^(erk-1/2) antibody (Cell Signaling Technology, Frankfurt, Germany, #9102) in 3% (w/v) bovine serum albumin (BSA)/TBS-T, (2) 1:5,000 dilution goat-anti-rabbit horseradish-conjugated secondary antibody in 1% (w/v) BSA/TBS-T. Phospho-p44/42^(erk-1/2): (1) 1:200 dilution rabbit-anti-human p44/42^(erk-1/2) (Thr202/Tyr204) antibody (Cell Signaling Technology, #9101) in 3% (w/v) BSA/TBS-T, (2) 1:5,000 dilution goat-anti-rabbit horseradish-conjugated secondary antibody in 1% (w/v) BSA/TBS-T. FAK: (1) 1:300 dilution mouse-anti-human FAK antibody (Cell Signaling Technology, #9102) in 3% (w/v) BSA/TBS-T, (2) 1:5,000 dilution goat-anti-mouse horseradish-conjugated secondary antibody in 1% (w/v) BSA/TBS-T. Phospho-FAK: (1) 1:300 dilution mouse-anti-human p-FAK antibody (Cell Signaling Technology) in 3% (w/v) BSA/TBS-T, (2) 1:5,000 dilution goat-antimouse horseradish-conjugated secondary antibody in 1% (w/v) BSA/TBS-T. Differences in blotting efficiency and protein loading were normalized by using a primary antibody against glyceraldehyde-3-phosphate dehydrogenase (GAPDH, 1:10,000 dilution in 1% (w/v) BSA/TBS-T, at RT for 45 min (Millipore, Schwalbach, Germany) and a secondary horseradish-conjugated goat-anti-mouse antibody (1:10,000 dilution in 1% (w/v) BSA/TBS-T, 40 min at RT).
The integrin binding assay was done to assess the specificity and subtype-selective affinity of L1–L5 and their respective Cy5.5-conjugated ligands by using isolated and purified integrins in cell-free ligand binding assays, as previously published.[59]Table 2 summarizes the used ECM ligands, integrins, and antibodies. In brief, flat-bottom 96-well plates were coated overnight at 4 °C with the natural ECM integrin ligands, vitronectin (for αvβ3-directed ligands), fibronectin (for α5β1-directed ligands), or LAP of TGF-β1 (for αvβ6-directed ligands) (100 μL/well in buffer containing 15 mM Na2CO3, 35 mM NaHCO3, pH 9.6). Subsequently, each well was washed in PBS, 0.01% (v/v) Tween 20, 137 mM NaCl, 2.7 mM KCl, 10 mM Na2HPO4, 2 mM KH2PO4, pH 7.4 (PBS-T), and blocked for unspecific binding events for 1 h at RT in 20 mM Tris–HCl, pH 7.5, 150 mM NaCl, 1 mM CaCl2, 1 mM MgCl2, 1 mM MnCl2, and 1% (w/v) BSA. Meanwhile, dilution series of the different integrin ligands and the internal standards were prepared, ranging from 20 μM to 256 pM in 1:5 dilution steps. […]

human αvβ6-integrin [1] = biological target: T3, human αvβ6-integrin (Homo sapiens, UniProt P06756+P18564); assay: ELISA-type solid-phase binding assay: soluble αvβ6 competing for immobilized LAP (TGF-β); conditions: competitive ELISA-type assay, referenced to internal standard RTDLDSLRT
T3 construct: purchased R&D 3817-AV-050

αvβ6- OV-MZ-6 cells = assay: Cellular uptake of Cy5.5-labeled ligands, OV-MZ-6 control cells; format: cell-based; conditions: 1 μM Cy5.5-labeled ligand
Protocol: (§1) For intracellular drug delivery, integrin ligands designed as drug-conjugated vehicles have to be easily and selectively internalized by tumor cells (over)expressing the respective targeted integrin subtype. […] It should be noted here that HN, OV-MZ-6, and RKO cells also express low αvβ3 expression levels.
(§2) Microchamber cell culture slides were coated with fibronectin (2 μg/mL), followed by cell seeding at a density of 50,000 cells/well. After 24 h of cultivation, cells were treated with integrin ligands L1-Cy5.5 to L5-Cy5.5 (1 μM in 0.01% (w/v) CaCl2 and 0.1% (w/v) BSA in PBS; 250 μL/well) for 3, 30, 60, or 300 min at 37 °C. The cells were washed in PBS/0.01% (w/v) CaCl2 (6 × 800 μL) and the fluorescence signal intensity recorded using the LSM 700 microscope (Zeiss, Jena, Germany). CellMask Green Plasma Membrane Stain was used to stain the cell membrane; nuclei were stained with Hoechst 33342.

HN cells (αvβ6+) = assay: Time-dependent cellular uptake of Cy5.5-labeled ligands, HN cells; format: cell-based; conditions: 1 μM, within 3 min
From the text: as §1
(§3) Figure 7 Cellular uptake of Cy5.5-labeled integrin ligands. […] Nuclei were costained with Hoechst 33342 (blue signal) and cell membranes with CellMask Green (green signal). Merge of stains (yellow signal) indicated colocalization of ligands at the cell membrane. Scale bar: 50 μm.
as §2

[2] = biological target: human α5β1-integrin (human) (UniProt P08648); assay: ELISA; competitive ELISA-type solid-phase assay: human fibronectin (0.5 μg/mL) coated on the plate overnight at 4 °C, soluble human α5β1 (2.0 μg/mL) added with a dilution series of the ligand (20 μM to 256 pM), 1 h at RT; blocked in 20 mM Tris-HCl pH 7.5, 150 mM NaCl, 1 mM CaCl2, 1 mM MgCl2, 1 mM MnCl2, 1% BSA; bound integrin detected with anti-CD49e; IC50 referenced to cilengitide
[3] = test system: M21 (αvβ3+), HN (αvβ6+), RKO (α5β1+) cells; assay: Time-dependent cellular uptake of Cy5.5-labeled ligands in cells overexpressing the targeted integrin; format: cell-based; conditions: state within 30 min, Cy5.5-conjugated ligands, target integrin-expressing cells
From the text: as §1, §3, §2

[4] = biological target: human α5β1-integrin (human) (UniProt P08648)
human αvβ6-integrin [5] = biological target: T4, human αvβ6-integrin (human, UniProt P06756 31-1048; P18564 22-709); assay: ELISA; competitive ELISA-type solid-phase assay: LAP of TGF-β1 (0.4 μg/mL) coated on the plate overnight at 4 °C, soluble human αvβ6 (0.5 μg/mL) added with a dilution series of the ligand (20 μM to 256 pM), 1 h at RT; blocked in 20 mM Tris-HCl pH 7.5, 150 mM NaCl, 1 mM CaCl2, 1 mM MgCl2, 1 mM MnCl2, 1% BSA; bound integrin detected with anti-αv; IC50 referenced to …; conditions: both partners purified
T4 construct: integrin alpha-V, human, chain of the soluble purified αvβ6 heterodimer; integrin beta-6, human, chain of the soluble purified αvβ6 heterodimer; also called integrin αvβ6; source: bought: R&D, #3817-AV-050

[6] = competitive ELISA-type assay, referenced to internal standard cilengitide (L2)

COc1ccnc(NCCCOc2ccc(C[C@@H](CC(=O)O)NC(=O)c3ccc(OCCCNC(=O)CCCCCNC(=O)CCCCC[N+]4=C(/C=C/C=C/C=C5/N(C)c6ccc7ccccc7c6C5(C)C)C(C)(C)c5c4ccc4ccccc54)cc3)cc2)c1 [L1-Cy5.5]
IC50 (human αvβ3-integrin): 1.02 ± 0.02 nM | IC50 (human α5β1-integrin; [6]): > 1000 nM | IC50 (human αvβ6-integrin [1]): > 1000 nM | Binding / intracellular uptake in control cells (αvβ6- OV-MZ-6 cells): only minor intracellular traces

CC(C)C[C@@H]1NC(=O)[C@H](CC(=O)O)NC(=O)CNC(=O)[C@H](CCCNC(=N)N)NC(=O)[C@H](Cc2ccccc2)NC(=O)[C@H](CCCCNC(=O)CCCCCNC(=O)CCCCC[N+]2=C(/C=C/C=C/C=C3/N(C)c4ccc5ccccc5c4C3(C)C)C(C)(C)c3c2ccc2ccccc32)N(C)C(=O)[C@H]2CCCN2C(=O)[C@H](Cc2ccccc2)NC(=O)[C@H](C)NC1=O [L3-Cy5.5]
IC50 (human α5β1-integrin; [6]): > 1000 nM | Localization of Cy5.5-labeled ligand (HN cells (αvβ6+)): already intracellularly visible | Binding / intracellular uptake in control cells (αvβ6- OV-MZ-6 cells): did not bind

CN1/C(=C/C=C/C=C/C2=[N+](CCCCCC(=O)NCCCCCC(=O)N[C@@H](CCCCNC(=O)[C@@H]3CCC(=O)N[C@@H](CCCNC(=N)N)C(=O)NCC(=O)N[C@@H](CC(=O)O)C(=O)N[C@@H](C4CCCCC4)C(=O)N3)C(N)=O)c3ccc4ccccc4c3C2(C)C)C(C)(C)c2c1ccc1ccccc21 [L4-Cy5.5]
IC50 (human α5β1-integrin): > 1000 nM | Binding / intracellular uptake in control cells (αvβ6- OV-MZ-6 cells): did not bind

Cc1cc(OCCCNC(=O)CCCCCNC(=O)CCCCC[N+]2=C(/C=C/C=C/C=C3/N(C)c4ccc5ccccc5c4C3(C)C)C(C)(C)c3c2ccc2ccccc32)cc(C)c1C(=O)N[C@@H](CNC(=O)CNC(=O)c1cccc(NC(=N)N)c1)C(=O)O [L5-Cy5.5]
IC50 (human αvβ3-integrin): > 1000 nM | IC50 (human α5β1-integrin; [6]): 4.69 ± 1 nM | IC50 (human αvβ6-integrin [1]): 154 ± 136 nM

L3-Cy5.5, the Cy5.5 conjugate of c(FRGDLAFp(NMe)K) (L3) (peptide)
IC50 [2]: > 1000 nM

L4-Cy5.5, the Cy5.5 conjugate of c(RGD-Chg-isoE)-CONH2 (L4) (peptide)
IC50 [2]: > 1000 nM

c(RGD-Chg-isoE)-CONH2 [L4]
Endocytosis of Cy5.5-conjugated ligand [3]: already completed

cyclo(RGD[dF][NMeV]) [cilengitide, c(RGDf(NMe)V) (L2)]
p-FAK level by Western blot in OV-MZ-6 cells (low αvβ3, α5β1+) with 1 nM cilengitide, 5 to 60 min [4]: 2.2 fold

B1: L4-Cy5.5, the Cy5.5 conjugate of c(RGD-Chg-isoE)-CONH2 (L4) (peptide)
chain: cyclo(RGD[Chg][isoE])
modifications: not fully specified (C-terminus); printed as c(RGD-Chg-isoE)-CONH2; also: Cy5.5 attached via Ahx linker, site not given here
IC50 (human αvβ6-integrin [5]): 7.63 ± 0.83 nM
